Laboratory results published in PubChem BioAssay AID1918996 (Molecular Pharmacology Branch, DTP, NCI, 2023).

System: 349418-098-R-PDC complex spheroid growth
Assay: Anticancer human tumor 349418-098-R-PDC patient-derived lung adenocarcinoma cell line growth inhibition [AhR]
Details: for IC50: curve of first compound; for viability, T/C: stronger effect = lower value
Source text: Multicellular complex tumor spheroid response to aryl hydrocarbon receptor antagonists in combination with a variety of drugs and investigational agents in selected tumor cell lines
The current study was undertaken to assess response to aryl hydrocarbon receptor antagonists in combination with standard-of-care drugs and investigational agents in solid tumor complex spheroid models. Complex spheroids include a stromal component modeled by human endothelial cells (HUVEC) and fibroblasts modeled by human mesenchymal stem cells (MSCs). The concentration ranges selected for each drug and investigational agent were based upon clinically achievable concentrations if the clinical Cmax of the agent was known.
Compounds. The drugs and investigational agents: BAY 2416964 (NSC825713), GNF351 (NSC835774), CH-223191 (NSC835775), CPI-455 (NSC825282), aza-TdCyd (NSC777586), decitabine (NSC127716), belinostat (NSC758774), entinostat (NSC756642), pevonedistat (NSC761192), tazemetostat (NSC777109), talazoparib (NSC765396), olaparib (NSC753686), selinexor (NSC780203), nedisertib (M3814, NSC802822), bortezomib (NSC756655), venetoclax (NSC766270), doxorubicin (NSC123127), elimusertib (BAY189344, NSC800525), ceralasertib (AZD6738, NSC777638), TAK-243 (NSC785004), alisertib (NSC759677), etoposide (NSC141540), topotecan (NSC609699), eribulin (NSC707389), gemcitabine (NSC613327), carboplatin (NSC241240), cisplatin (NSC119875), and SN-38 (NSC673596) were obtained from the National Cancer Institute (NCI) Developmental Therapeutics Program Chemical Repository (32). The FDA-approved anticancer drug set is available from the Developmental Therapeutics Program at https://dtp.cancer.gov/organization/dscb/obtaining/available plates.htm. […] The stock solutions were prepared in dimethyl sulfoxide (DMSO, Sigma-Aldrich, St. Louis, MO, cat. D2650), except for the platinum compounds which were prepared in saline (Quality Biological, Gaithersburg, MD, cat. 114-055-101), at 800-fold the tested concentration and stored at -70 degrees C prior to their use. All drugs and investigational agents were tested over a range starting from a high concentration at or near the clinical Cmax and decreasing in half-log increments. If the clinical Cmax for an agent had not been determined, the highest concentration tested was 10 microM (Table 1).
Cell Culture. All cells were maintained in an incubator at 37 degrees C and 5% CO2 with 95% humidity. The PDC lines were cultured according to standard operating procedures established by the NCI PDMR (https://pdmr.cancer.gov). Briefly, all PDCs were thawed and cultured in Matrigel-coated flasks prepared with a working solution of 1X Ham's F-12 nutrient mix, without supplementation (Invitrogen, Waltham, MA, cat. 11765054), 100 U/mL penicillin-streptomycin (Invitrogen, cat. 15140122), and 2.5% Matrigel (Corning Inc., Corning, NY, cat. 354248) for the first three passages. All PDCs were cultured in complete DMEM/F-12 media containing advanced DMEM/F-12 (Invitrogen, cat. 12634028), 4.9% defined fetal bovine serum, heat inactivated (HyClone Laboratories Inc., Logan, UT, cat. SH30070.03HI), 389 ng/mL hydrocortisone (Sigma-Aldrich, cat. H4001), 9.7 ng/mL human EGF recombinant protein (Invitrogen, cat. PHG0313), 23.4 microg/mL adenine (Sigma-Aldrich, cat. A2786), 97.3 U/mL penicillin-streptomycin (Invitrogen, cat. 15140122), 1.9 mM L-glutamine (Invitrogen, cat. 25030081), and 9.7 microM Y-27632 dihydrochloride (Tocris Bioscience, Bristol, United Kingdom, cat. 1254). The PDCs were cultured in complete DMEM/F12 media without 10 microM Y-27632 dihydrochloride for at least two passages prior to the screen. The established cell lines NCI-H1341 and […] were cultured in DMEM/F-12, HEPES (Invitrogen, cat. 11330032), 5% defined fetal bovine serum (HyClone Laboratories Inc., cat. SH30070.03), ITS premix universal culture supplement [insulin (5 microg/mL), transferrin (5 microg/mL), and selenious acid (5 ng/mL)] […]
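Note: spheroids exposed to agents for seven days before luminescence viability read.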
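Throughout, for viability, T/C: spheroids also contain HUVEC endothelial cells and human MSC stroma.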

IC50 (second compound 0.1 µM): < 0.949 nM
IC50 (second compound 0.316 µM): < 0.949 nM
IC50 (second compound 1 µM): < 0.949 nM
IC50 (second compound 3.16 µM): < 0.949 nM
IC50 (second compound 10 µM): < 0.949 nM
SMILES: CC(C)CC(NC(=O)C(Cc1ccccc1)NC(=O)c1cnccn1)B(O)O (stereo not given) + CC(CO)NC(=O)c1cc(-c2ccc(Cl)cc2)nn(-c2cnn(C)c2)c1=O
viability, T/C (second compound 0.1 µM, first compound 0.000949 µM): 23.1%
viability, T/C (second compound 0.1 µM, first compound 0.003 µM): 6.06%
viability, T/C (second compound 0.1 µM, first compound 0.00949 µM): 3.66%
viability, T/C (second compound 0.1 µM, first compound 0.03 µM): 2.47%
viability, T/C (second compound 0.1 µM, first compound 0.0949 µM): 2.75%
viability, T/C (second compound 0.1 µM, first compound 0.3 µM): 1.27%
viability, T/C (second compound 0.316 µM, first compound 0.000949 µM): 24.2%
viability, T/C (second compound 0.316 µM, first compound 0.003 µM): 6.19%
viability, T/C (second compound 0.316 µM, first compound 0.00949 µM): 4.09%
viability, T/C (second compound 0.316 µM, first compound 0.03 µM): 1.94%
viability, T/C (second compound 0.316 µM, first compound 0.0949 µM): 2.38%
viability, T/C (second compound 0.316 µM, first compound 0.3 µM): 1.96%
viability, T/C (second compound 1 µM, first compound 0.000949 µM): 22.5%
viability, T/C (second compound 1 µM, first compound 0.003 µM): 5.68%
viability, T/C (second compound 1 µM, first compound 0.00949 µM): 2.71%
viability, T/C (second compound 1 µM, first compound 0.03 µM): 2.61%
viability, T/C (second compound 1 µM, first compound 0.0949 µM): 1.69%
viability, T/C (second compound 1 µM, first compound 0.3 µM): 1.84%
viability, T/C (second compound 3.16 µM, first compound 0.000949 µM): 21.1%
viability, T/C (second compound 3.16 µM, first compound 0.003 µM): 6.77%
viability, T/C (second compound 3.16 µM, first compound 0.00949 µM): 2.56%
viability, T/C (second compound 3.16 µM, first compound 0.03 µM): 1.42%
viability, T/C (second compound 3.16 µM, first compound 0.0949 µM): 1.44%
viability, T/C (second compound 3.16 µM, first compound 0.3 µM): 1.95%
viability, T/C (second compound 10 µM, first compound 0.000949 µM): 23.2%
viability, T/C (second compound 10 µM, first compound 0.003 µM): 6.76%
viability, T/C (second compound 10 µM, first compound 0.00949 µM): 2.77%
viability, T/C (second compound 10 µM, first compound 0.03 µM): 1.65%
viability, T/C (second compound 10 µM, first compound 0.0949 µM): 1.33%
viability, T/C (second compound 10 µM, first compound 0.3 µM): 1.68%
